Results as given in paper PMC2365111, “Cytotoxicity of Poly(Phenolic)Sulfonates and Their Sodium Salts in L1210 Lymphoid Leukemia Cells” (Metal-Based Drugs, 1998).

Key:
[1] = tested on: colorectal adenocarcinoma SW480; assay: Cytotoxicity, SW480 growth; type: cell-based, human
Description: CYTOTOXlCITY OF POLY(PHENOLIC)SULFONATES AND THEIR SODIUM SALTS IN L1210 LYMPHOID LEUKEMIA CELLS Fei Wang, Amy E. Warren, Cheryl R. Barnes and Iris H. Hall* Division of Medicinal Chemistry and Natural Products University of North Carolina Chapel Hill, N.C. […] Because ofthese properties it was surmised that these poly(phenolic)sulfonated compounds may have antineoplastic activity. METHODS Source of Compounds Test compounds were supplied by GeneLabs, Inc. [Redwood City, CA [Table 1]. Radioisotopes were obtained from New England Nuclear [Dupont, Boston, MA]. Substrates and co-factors were purchased om Sigma Chemical Co., [St Louis, MO]. Pentosan sulfate and other antineoplastic standards were obtained from Sigma Chemical Co. Tumor lines were obtained from American Type Culture Collection [Rockville, MD]. 147 Vol. 5, No. 3, 1998 Cytotoxicity ofSodium Poly(Phenolic)Sulfonates in L1210 Lymphoid Leukemia Cells Table 1 Structures of Poly(phenolic)sulfonate Compounds O2R" n Compound R' R" n MW # G1-2041 H OH 8 1489.46 G1-2029 H OH 6 1117.09 G1-2030 H OH 4 744.73 GI-2021 CH3 ONa 8 1777.5 G1-2057 CH3 ONa 4 888.75 GI-2158 CH3 ONa 6 1333.13 GI-2063 OCH3 ONa 8 2001.65 G1-2042 OAc ONa 8 2017.73 Cytotoxicity Poly(phenolic)sulfonates were tested for cytotoxic activity by homogenizing drug in 0.05% Tween 80/H20 to give a mg/ml stock concentration. These solutions were sterilized by passing them through an acrodisc ([…]). The following cell lines were maintained by literature techniques: murine L1210 lymphoid leukemia, P-388 lymphocytic leukemia, rat UMR 106 osteosarcoma, human Tmolt3 acute lymphoblastic T cell leukemia, HUT-8 lymphoma, HeLa-S suspended cervical carcinoma, HeLa solid cervical carcinoma, KB epidermoid nasopharynx, A431 epidermoid carcinoma, colorectal adenocarcinoma SW480, HCT-8 ileocecal adenocarcinoma, lung bronchogenic MB-9812, A549 lung carcinoma, and glioma HS683. […] Cell numbers were determined by the trypan blue exclusion technique. Solid tumor cytotoxicity was determined by Leibovitz et al. 's method utilizing crystal violeeOH and read at 562 nm (Molecular Devices). Values for cytotoxicity were expressed as EDs0 g/ml, i.e. the concentration ofthe compound inhibiting 50% ofcell growth. […] Incorporation of 4C- formate (53.0 mCi/mmol) into pyrimidines was determined by the method of Christopherson et al.[13]. […] DNA polymerase Ot activity was determined in cytoplasmic extracts isolated by Eichler et aL's method. […] Messenger-, ribosomal- and transfer-RNA polymerase enzymes were isolated with different concentrations of ammonium sulfate; individual RNA polymerase activities were determined using 3H -UTP 16,17]. Ribonucleoside reductase activity was measured using 4C -CDP with dithioerythritol. […]

[2] = tested on: KB epidermoid nasopharynx; assay: Cytotoxicity, KB growth; type: cell-based, human; conditions: concentration inhibiting 50% of cell growth
Description: (§1) CYTOTOXlCITY OF POLY(PHENOLIC)SULFONATES AND THEIR SODIUM SALTS IN L1210 LYMPHOID LEUKEMIA CELLS Fei Wang, Amy E. Warren, Cheryl R. Barnes and Iris H. Hall* Division of Medicinal Chemistry and Natural Products University of North Carolina Chapel Hill, N.C. […] Because ofthese properties it was surmised that these poly(phenolic)sulfonated compounds may have antineoplastic activity. METHODS Source of Compounds Test compounds were supplied by GeneLabs, Inc. [Redwood City, CA [Table 1]. Radioisotopes were obtained from New England Nuclear [Dupont, Boston, MA]. Substrates and co-factors were purchased om Sigma Chemical Co., [St Louis, MO]. Pentosan sulfate and other antineoplastic standards were obtained from Sigma Chemical Co. Tumor lines were obtained from American Type Culture Collection [Rockville, MD]. […] Cell numbers were determined by the trypan blue exclusion technique. Solid tumor cytotoxicity was determined by Leibovitz et al. 's method utilizing crystal violeeOH and read at 562 nm (Molecular Devices). Values for cytotoxicity were expressed as EDs0 g/ml, i.e. the concentration ofthe compound inhibiting 50% ofcell growth. […] Incorporation of 4C- formate (53.0 mCi/mmol) into pyrimidines was determined by the method of Christopherson et al.[13]. […] DNA polymerase Ot activity was determined in cytoplasmic extracts isolated by Eichler et aL's method. […] Messenger-, ribosomal- and transfer-RNA polymerase enzymes were isolated with different concentrations of ammonium sulfate; individual RNA polymerase activities were determined using 3H -UTP 16,17]. Ribonucleoside reductase activity was measured using 4C -CDP with dithioerythritol. […]

[3] = target: DNA polymerase; design: method as in ref 40; conditions: non-competitively; enzyme name lost ref 40; read-out: inhibition of second DNA polymerase activity; cited from earlier work
[4] = tested on: HeLa cells; design: method as in ref 38; conditions: HeLa cells ref 38; cited from earlier work
[5] = tested on: SV40 replication; design: method as in ref 38; conditions: in HeLa cells ref 38; cited from earlier work
[6] = tested on: DC-3F/9-OH-E (resistant 9-hydroellipticine subline); design: method as in ref 41; conditions: cited from earlier work
[7] = target: DNA polymerase α; design: method as in ref 40; conditions: non-competitively ref 40; read-out: inhibition of DNA polymerase α activity; cited from earlier work
[8] = tested on: DC-3F; design: method as in ref 41; conditions: cited from earlier work
[9] = tested on: Rauscher leukemic virus, Moloney murine sarcoma virus and avian myeloblastosis reverse transcriptase; conditions: cited from earlier work
[10] = tested on: HeLa-S suspended cervical carcinoma; assay: Cytotoxicity, HeLa-S3 growth; type: cell-based, human; conditions: concentration inhibiting 50% of cell growth
Description: as §1, with “MO].” for “MO]. Pentosan sulfate and other antineoplastic standards were obtained from Sigma Chemical Co. Tumor lines were obtained from American Type Culture Collection [Rockville, MD].”, “16,17].” for “16,17]. Ribonucleoside reductase activity was measured using 4C -CDP with dithioerythritol.”

[11] = tested on: human Tmolt3 acute lymphoblastic T cell leukemia; assay: Cytotoxicity, Tmolt3 growth; type: cell-based; conditions: concentration inhibiting 50% of cell growth
Description: as §1, with “MO].” for “MO]. Pentosan sulfate and other antineoplastic standards were obtained from Sigma Chemical Co. Tumor lines were obtained from American Type Culture Collection [Rockville, MD].”, “16,17].” for “16,17]. Ribonucleoside reductase activity was measured using 4C -CDP with dithioerythritol.”

[12] = tested on: lung bronchogenic MB-9812; assay: Cytotoxicity, MB-9812 growth; type: cell-based, human
Description: as §1, with “MO].” for “MO]. Pentosan sulfate and other antineoplastic standards were obtained from Sigma Chemical Co. Tumor lines were obtained from American Type Culture Collection [Rockville, MD].”, “16,17].” for “16,17]. Ribonucleoside reductase activity was measured using 4C -CDP with dithioerythritol.”

[13] = tested on: murine L1210 lymphoid leukemia; type: cell-based, mouse; conditions: concentration inhibiting 50% of cell growth
Description: CYTOTOXlCITY OF POLY(PHENOLIC)SULFONATES AND THEIR SODIUM SALTS IN L1210 LYMPHOID LEUKEMIA CELLS Fei Wang, Amy E. Warren, Cheryl R. Barnes and Iris H. Hall* Division of Medicinal Chemistry and Natural Products University of North Carolina Chapel Hill, N.C. […] Because ofthese properties it was surmised that these poly(phenolic)sulfonated compounds may have antineoplastic activity. METHODS Source of Compounds Test compounds were supplied by GeneLabs, Inc. [Redwood City, CA [Table 1]. Radioisotopes were obtained from New England Nuclear [Dupont, Boston, MA]. Substrates and co-factors were purchased om Sigma Chemical Co., [St Louis, MO]. Pentosan sulfate and other antineoplastic standards were obtained from Sigma Chemical Co. Tumor lines were obtained from American Type Culture Collection [Rockville, MD]. 147 Vol. 5, No. 3, 1998 Cytotoxicity ofSodium Poly(Phenolic)Sulfonates in L1210 Lymphoid Leukemia Cells Table 1 Structures of Poly(phenolic)sulfonate Compounds O2R" n Compound R' R" n MW # G1-2041 H OH 8 1489.46 G1-2029 H OH 6 1117.09 G1-2030 H OH 4 744.73 GI-2021 CH3 ONa 8 1777.5 G1-2057 CH3 ONa 4 888.75 GI-2158 CH3 ONa 6 1333.13 GI-2063 OCH3 ONa 8 2001.65 G1-2042 OAc ONa 8 2017.73 Cytotoxicity Poly(phenolic)sulfonates were tested for cytotoxic activity by homogenizing drug in 0.05% Tween 80/H20 to give a mg/ml stock concentration. These solutions were sterilized by passing them through an acrodisc ([…]). The following cell lines were maintained by literature techniques: murine L1210 lymphoid leukemia, P-388 lymphocytic leukemia, rat UMR 106 osteosarcoma, human Tmolt3 acute lymphoblastic T cell leukemia, HUT-8 lymphoma, HeLa-S suspended cervical carcinoma, HeLa solid cervical carcinoma, KB epidermoid nasopharynx, A431 epidermoid carcinoma, colorectal adenocarcinoma SW480, HCT-8 ileocecal adenocarcinoma, lung bronchogenic MB-9812, A549 lung carcinoma, and glioma HS683. Geran et al.'s protocol was used to assess the cytotoxicity of the compounds and standards in each cell line. Cell numbers were determined by the trypan blue exclusion technique. Solid tumor cytotoxicity was determined by Leibovitz et al. 's method utilizing crystal violeeOH and read at 562 nm (Molecular Devices). Values for cytotoxicity were expressed as EDs0 g/ml, i.e. the concentration ofthe compound inhibiting 50% ofcell growth. A value of less than 4 µg/ml was required for significant activity ofgrowth inhibition. Incorporation Studies Incorporation of labeled precursors into 3H-DNA, 3H -RNA and 3H -protein for 10 L1210 cells was obtained. The concentration response for inhibition of DNA, RNA and protein synthesis of the compounds at 25, 50 and 100 l.tM was determined for 60 min incubations. Incorporation of 14C -glycine (53.0 mCi/mmol) into purines was obtained by the method of Cadman et al.[12]. Incorporation of 4C- formate (53.0 mCi/mmol) into pyrimidines was determined by the method of Christopherson et al.[13]. Enzyme Assays Inhibition of various enzyme activities was performed by first preparing the appropriate L1210 cell homogenates or subcellular fractions, then adding the drug to be tested during the enzyme assay. For the concentration response studies, inhibition of enzyme activity was determined at 25, 50 and 100 l.tM of compounds G1-2021, G1-2029, GI-2041 and G1-2063 after 60 min incubations. DNA polymerase Ot activity was determined in cytoplasmic extracts isolated by Eichler et aL's method. The DNA polymerase assay was described by Sedwick et al.[15] using 3H-TTP. Messenger-, ribosomal- and transfer-RNA polymerase enzymes were isolated with different concentrations of ammonium sulfate; individual RNA polymerase activities were determined using 3H -UTP 16,17]. Ribonucleoside reductase activity was measured using 4C -CDP with dithioerythritol. The deoxyribonucleotides 4C -dCDP were separated from the ribonucleotides by TLC on PEI plates. […]

Q: For `O=S(=O)(O)c1cc2c(O)c(c1)Cc1cc(S(=O)(=O)O)cc(c1O)Cc1cc(S(=O)(=O)O)cc(c1O)Cc1cc(S(=O)(=O)O)cc(c1O)C2` [GI-2030], which “activity, in words” value [1] is on record?
A: active

Q: And the ED50 ([1]; concentration inhibiting 50% of cell growth)?
A: less than 2 μg/ml

Q: With `COc1c2cc(S(=O)(=O)[O-])cc1Cc1cc(S(=O)(=O)[O-])cc(c1OC)Cc1cc(S(=O)(=O)[O-])cc(c1OC)Cc1cc(S(=O)(=O)[O-])cc(c1OC)Cc1cc(S(=O)(=O)[O-])cc(c1OC)Cc1cc(S(=O)(=O)[O-])cc(c1OC)C2.[Na+].[Na+].[Na+].[Na+].[Na+].[Na+]` [GI-2158] as the molecule, how does the ED50 [2] read?
A: 3.24 µg/mL

Q: With `Cc1ccc(C(=O)Nc2ccc(S(=O)(=O)O)c3cc(S(=O)(=O)O)cc(S(=O)(=O)O)c23)cc1NC(=O)c1cccc(NC(=O)Nc2cccc(C(=O)Nc3cc(C(=O)Nc4ccc(S(=O)(=O)O)c5cc(S(=O)(=O)O)cc(S(=O)(=O)O)c45)ccc3C)c2)c1` [suramin] as the molecule, how does the IC50 [3] read?
A: 36 µM

Q: What about the “concentration required to cause death” value [4] of the same molecule?
A: 250 µg/mL

Q: And the “concentration required to inhibit SV40 replication” value [5]?
A: 40 µM

Q: What about the ED50 [6] of the same molecule?
A: 203 µM

Q: What about the IC50 [7] of the same molecule?
A: 8 µM

Q: And the ED50 [8]?
A: 31 µM

Q: And the “concentration inhibiting reverse transcriptase activities” value [9]?
A: 0.1 µg/mL

Q: Which results are given for pentosan sulfate [reference compound]?
A: ED50 [10]: < 3 µg/mL; ED50 [11]: < 3 µg/mL; growth suppression, in words [12]: suppressed moderately; ED50 [13]: < 3 µg/mL
